Paper PMC8041823, “Structural comparison of Acinetobacter baumannii β-ketoacyl-acyl carrier protein reductases in fatty acid and aryl polyene biosynthesis” (Scientific Reports, 2021)

Biological target: T1, AbApeQ (Acinetobacter baumannii, UniProt Z9NHK5QJZ4)
T1 construct: full-length, pET28a, N-terminal His-tag removed with thrombin, expressed in E. coli BL21 (DE3)
Test: X-ray crystallography (co-crystallization)
Format: binding
Conditions: 1:3 molar ratio of NADPH; 0.2 M potassium sodium tartrate, 20% PEG 3350; active site; NADPH density in two of four molecules

NC(=O)C1=CN([C@@H]2O[C@H](COP(=O)(O)OP(=O)(O)OC[C@H]3O[C@@H](n4cnc5c(N)ncnc54)[C@H](OP(=O)(O)O)[C@@H]3O)[C@@H](O)[C@H]2O)C=CC1 [NADPH]
X-ray crystallography (co-crystallization): We obtained the structure of the AbApeQ–NADPH complex by co-crystallization of AbApeQ and NADPH.
